Source: patent US20220110331A1, “COMPOSITION FOR PROMOTING GROWTH OF EFFECTIVE MICROORGANISM AND CONTROLLING PLANT DISEASE USING PREBIOTICS, AND USE THEREOF” (priority 2018, published 2022)

Experiments:
[1] = system: Streptomyces badius SP6C4 strain; assay: Amino acid preference of effective microorganism on Biolog PM3B nitrogen source plate (redox dye colour); format: cell-based; settings: 72 hours at 28° C., then dye and culture at 37° C. for 24 and 48 hours, naked eye
Method: Single colony of Streptomyces badius SP6C4 strain with deposit number of KCCM11703P was inoculated by streaking on MS medium (containing 20 g of mannitol, 20 g of soya, and 20 g of agar in 1 liter distilled water) and cultured for 7 days at 28° C. […] Thus-completed spore stock was diluted in sterile water, and, after adjusting the concentration to OD595 of 0.2±0.02, carrageenan stock (0.2% carrageenan and 50 mL distilled water) was prepared. The spore stock (1.5 mL) was admixed with 0.2% carrageenan stock (13.5 mL) and then the mixture (100 μl) was aliquoted onto a biolog plate (PM3B MICROPLATE™ Nitrogen Sources) followed by sealing the plate with a transparent film sheet. After 72 hours at 28° C., Redox dye mix MA (Biolog, Hayward, Calif.) was aliquoted to each well (10 μl per well) and sealed with a transparent film and a wrap to block the incorporation of CO2 from outside. Culture was carried out at 37° C. for 24 hours and 48 hours, respectively. […] Determination was made based on the assumption that stronger purple color corresponds to higher growth of the microorganism.

bloom blight = assay: Strawberry field test, incidence rate of bloom blight; format: in vivo, Cladosporium cladosporioides; settings: foliar application of 2% amino acid, 8 treatments with interval of 2 weeks, non-treatment group up to 50%
Method: (§1) Specifically, the test was carried out with an interval of 2 weeks during the cultivation period of strawberry. Length of 5M was set as a single section and foliar application was performed for three sections. For each section, 100 strawberries were randomly selected and incidence rate of the disease was determined. As a treatment process, each amino acid was diluted to concentration of 2% in 15 liter distilled water, and the mixture (5 liter) was applied to each section. The treatment was carried out 8 times with an interval of 2 weeks.

gray mold = assay: Strawberry field test, incidence rate of gray mold; format: in vivo, Botrytis cinerea; settings: foliar application of 2% amino acid; for incidence rate of gray mold: 8 treatments with interval of 2 weeks, non-treatment group 35%; for incidence rate of gray mold (in words): 8 treatments, decreased in order of glutamic acid, proline, tryptophan
Method: as §1

Fusarium oxysporum [2] = assay: Wilt disease control after coating tomato seeds with glutamic acid; format: in vivo; settings: tomato seeds coated with 2% glutamic acid and 0.1% CMC, then pathogen; Day 3 (Early time) and Day 10 (Late time); pathogen only about 50% and 100%
Method: By using a concentrate of glutamic acid (20% (w/v)) and a concentrate of CMC (carboxyl methyl cellulose) (1% (w/v)) as a spreader, a mixture solution was prepared such that they have concentration of 2% and 0.1%, respectively. Forty to fifty tomato seeds of which surfaces have been sterilized with 70% (v/v) ethanol and 1% (v/v) sodium hypochlorite were added to 1 mL of the mixture solution and dried for 12 hours in a sterile bench at room temperature condition. After that, the coated seeds were planted to a square pot (3 cm×3 cm), 1 to 2 seeds per pot. Fusarium oxysporum spores as wilt pathogen were added in an amount of 3 mL with concentration of 10^5×1.0 CFU/mL. The treatment group obtained after completing pathogen inoculation to the seeds was transferred to a plant growth chamber which is set at 28° C. for 16 hours of light period and 25° C. for 8 hours of dark period. On Day 3 (Early time) and Day 10 (Late time) after transfer to a plant growth chamber, the incidence rate of wilt disease was examined. As a control, a non-treatment group and a group treated only with the pathogen were examined, each repeated 10 times.

[3] = system: Streptomyces badius SP6C4 strain; assay: Growth promotion of effective microorganism by amino acids (OD600); format: cell-based; settings: fifth day of culture, 10 μl of amino acids at 2% added, 28° C.; basal medium control OD600 0.5
Method: To 10 μl of a spore stock of Streptomyces badius SP6C4 strain (10^5 cfu/mL), 80 μl of sterile water was added. After mixing with 10 μl of amino acids at concentration of 2%, the strain was cultured in a shaking incubator at a condition of 28° C. Growth of SP6C4 strain was examined by OD600 for 5 days with an interval of 24 hours.

Fusarium oxysporum [4] = assay: Wilt disease control after treating underground part of tomato plant with glutamic acid; format: in vivo; settings: 2% glutamic acid solution 20 mL applied 2 times to tomato plant
Method: To a tomato plant grown to have aboveground part of 8 to 10 cm, 2% glutamic acid solution was applied 2 times, in an amount of 20 mL with an interval of 5 days. […] A wound was created, by using a 5 mL tip, on the underground part of plant which has been treated twice with glutamic acid for 10 days, and then the spore suspension (10 mL) was applied to a pot with diameter of 9 cm. The plant inoculated with the pathogen was transferred to a plant growth chamber which is set at 28° C. for 16 hours of light period and 25° C. for 8 hours of dark period. Then, the incidence rate of disease was determined with an interval of 1 week. As a control, a group treated only with the pathogen and a plant not treated with any were tested, each repeated 5 times.

[5] = system: Streptomyces badius SP6C4 strain; assay: Maintenance of density of effective microorganism on strawberry flowers after amino acid treatment (qPCR of lanM gene); format: in vivo; settings: continuously maintained except the first treatment out of 8 treatments
Method: To determine whether or not the density of effective microorganism is maintained even after a treatment of the amino acids, three strawberry flowers were collected, 3 times repeatedly, in each treatment period during which the test of inhibiting gray mold by the strawberry field test of Example 3 is carried out. After transfer to the lab under cold storage, 3 flowers were added to 30 mL of 1×PBS buffer and subjected to an ultrasonication treatment for 10 minutes. 3 mL of the supernatant was centrifuged for 10 minutes at a rate of 13,000 rpm, 1 mL of the resulting supernatant was discarded, and the pellet was dissolved in the remaining supernatant (2 mL). 500 μl of the mixture was admixed with 500 μl CTAB buffer followed by DNA purification. Each DNA was subjected to qPCR (quantitative polymerase chain reaction) by using lanM gene specific primers of Streptomyces badius SP6C4 strain (forward direction: 5′-gtacggatctgcaccacga-3′ (SEQ ID NO: 1), reverse direction: 5′-[…]-3′ (SEQ ID NO: 2)).

SMILES: C[C@H](N)C(=O)O [alanine]
- color change with Redox dye (stronger purple color corresponds to higher growth of the microorganism) [1]: darkest purple color

SMILES: N=C(N)NCCC[C@H](N)C(=O)O [arginine]
- color change with Redox dye (stronger purple color corresponds to higher growth of the microorganism) [1]: darkest purple color

SMILES: NC(=O)C[C@H](N)C(=O)O [asparagine, reference compound]
- incidence rate of bloom blight (bloom blight): up to 40%
- incidence rate of gray mold (gray mold): about 25%

SMILES: N[C@@H](CCC(=O)O)C(=O)O [glutamic acid]
- incidence rate of wilt disease (Fusarium oxysporum [2]): wilt disease does not occur
- OD600 (growth of SP6C4 strain) [3]: 1.8
- incidence rate of disease (wilt) (Fusarium oxysporum [4]; for 2 weeks after the initial pathogen treatment): no significant difference
- incidence rate of disease (wilt) (Fusarium oxysporum [4]; from the week 4, pathogen only 100%): less than 15%
- microorganism concentration (SP6C4 on strawberry flowers) [5]: ≥ 10^5 cfu/mL
- color change with Redox dye (stronger purple color corresponds to higher growth of the microorganism) [1]: darkest purple color
- incidence rate of gray mold (gray mold): less than 15%

SMILES: O=C(O)[C@@H]1CCCN1 [proline]
- incidence rate of gray mold (in words) (gray mold): incidence rate has decreased

SMILES: N[C@@H](Cc1c[nH]c2ccccc12)C(=O)O [tryptophan]
- incidence rate of gray mold (in words) (gray mold): incidence rate has decreased
